Measured values taken from US20240115672A1, “TREATMENT OF AN IOP CONDITION” (THE RESEARCH FOUNDATION FOR THE STATE UNIVERSITY OF NEW YORK, priority 2021, published 2024).

Key:
[1] = tested on: MMP-1, MMP-2, MMP-9, MMP-13, PLAT, PAI-1 mRNA; test: qRT-PCR gene expression in sheep TM and ciliary processes after tPA; type: in vivo
Text: Methods. Tissue Collection and Isolation of RNA. After animals were euthanized, eyes were immediately enucleated. Eyes were then opened anterior to the equator using a razor blade. The lens was removed from the anterior part, and the tissue was immersed in RNA stabilizing agent (RNAlater; Ambion, Carlsbad, CA) and placed at […] for transportation to the United States. Upon arrival in the United States, TM and ciliary processes (CP) were dissected on ice in the presence of RNA stabilizing agent as described previously. Dissected tissue was homogenized, and total RNA was extracted using TRIzol reagent (Gibco. Carlsbad, CA). Briefly, the tissue was homogenized in TRIzol, and chloroform was added to separate proteins from RNA. After centrifugation, the RNA-containing supernatant was aspirated. The RNA was precipitated with isopropanol, washed with 75% ethanol, treated with DNase, and column purified using a commercial kit (RNAeasy Mini Kit; Qiagen, Valencia, CA) in accordance with the manufacturer's instructions. RNA concentrations were determined with a spectrophotometer (Nanodrop; Thermo Scientific, Wilmington, DE) and the 260:280-nm absorbance ratio was calculated to determine RNA purity.
Quantitative Real-Time PCR (qRT-PCR) The RNA samples were reverse transcribed with random hexamers to cDNA using a reverse transcription kit (Quantitect; Qiagen) in accordance with the manufacturer's instructions. Quantitative RT-PCR was performed using a commercial kit (SYBR Green RT-PCR Reagents Kit; Applied Biosystems, Carlsbad, CA) in an ABI PRISM 7900HT sequence detector (Applied Biosystems). The sheep endogenous mRNA expression of matrix metalloproteinase-1 (MMP-1), matrix metalloproteinase-2 (MMP-2), matrix metalloproteinase-9 (MMP-9), matrix metalloproteinase-13 (MMP-13). and plasminogen activator tissue (PLAT) in the TM were investigated. Plasminogen activator inhibitor 1 (PA1-1) mRNA expression was measured in both TM and ciliary processes tissues. Relative quantification of gene expression was performed using the standard curve method. Mean threshold cycle (Ct) of the samples was compared among the groups by using the Ct. of 18S as an internal control. The DCt was calculated as the difference in Ct values derived from the target gene and the 18S gene. The DDCt was calculated as DCt of the normalized assayed genes in the treated samples minus DCt of normalized assayed genes in the naive control samples. Relative expression was calculated by the 2exp DD Ct formula.

[2] = tested on: Mmp-2, Mmp-9, Mmp-13 mRNA in angle ring tissues; test: Mmp expression in TA and protein treated C57BL/6J eyes (Example 13); type: in vivo, mouse; conditions: TA + protein; compared to BSA treated controls; p<0.0001
[3] = tested on: Mmp-2, Mmp-9, Mmp-13 mRNA in angle ring tissues; test: Mmp expression in Tg-MYOCY437H angle ring tissues (Example 19); type: in vivo, mouse
Experimental: Eyes were flash frozen in liquid nitrogen after outflow facility determination and subsequently dissected on ice to obtain the angle ring tissues containing the TM, as previously described (Kumar, Shah et al. 2013). Dissected TM tissues were immersed in RNAlater solution (Invitrogen, Waltham, MA, USA) and then snap-frozen and stored at −80° C. until RNA extraction. Tissue collected was pooled (four eyes) and homogenized in TRIzol reagent for RNA isolation, per manufacturer's instructions (Life Technologies, Carlsbad, CA, USA). RNA concentration was determined with a Nanodrop ND-1000 Spectrophotometer (Thermo Scientific, Wilmington, DE, USA). cDNA was synthesized by using High-Capacity cDNA
Reverse Transcription Kit (Applied Biosystems, Waltham, MA, USA) according to manufacturer's protocol. Quantitative real-time PCR (qRT-PCR) was performed by using Green-2-Go qPCR Mastermix-ROX (Bio Basic, Amherst, NY, USA) on a QuantStudio 6 Flex thermal cycler (Applied Biosystems, Carlsbad, CA, USA). mRNA expression of Plat, Plait, Pai-1, Mmp-2, Mmp-9, and Mmp-13 in angle ring tissues was determined. Primers were designed by using Primer-BLAST (haps://www.ncbi.nlm.nih.gov/tools/primer-blast/index.cgi?LINK_LOC=BlastHome; in the public domain); primer sequences are listed in Table 2. Primer specificity was confirmed by agarose gel electrophoresis and multiple-sized amplification products were absent on inspection of melting curves. Target mRNA expression values were normalized to the expression levels of Rps11 (ribosomal protein S11). The relative fold change was calculated by using the ΔΔCt method (Hu, Wang et al. 2015). Outliers identified via the Thompson Tau test were removed from analysis.

[4] = 2 days after intravitreal protein

tPA: recombinant human tissue plasminogen activator (ACTILYSE; Boehringer Ingelheim), enzymatically active
MMP1 expression ([1]; sheep, after tPA): up-regulates | MMP2 expression ([1]; sheep, after tPA): up-regulates | MMP9 expression ([1]; sheep, after tPA): up-regulates | MMP13 expression ([1]; sheep, after tPA): up-regulates | PAI-1 expression ([1]; trabecular meshwork (TM) and ciliary processes): up-regulating | Mmp-2 expression [2]: significant upregulation | Mmp-2 expression compared to BSA treated eyes [3, 4]: no significant difference | Mmp-9 expression compared to BSA treated eyes [3, 4]: not detected | Mmp-13 expression compared to BSA treated eyes ([3]; 2 days after intravitreal protein, p<0.01): significantly higher | Mmp-9 expression compared to BSA treated eyes ([3]; 5 days treatment): higher | Mmp-13 expression compared to BSA treated eyes ([3]; 5 days treatment): significantly higher | Mmp-2 expression compared to BSA treated eyes ([3]; 5 days treatment, p>0.05): no significant difference
